For assay [1], the target named is translation of nanoluciferase mRNA in rabbit reticulocyte lysates. Nature of the assay: Nanoluciferase mRNA translation in rabbit reticulocyte lysate, inhibitor preincubated 5 min before mRNA. The assay is classed as biochemical. The following applies: read-out: IC50 of translation inhibition. The text has this: Rabbit reticulocyte lysates (RRL, Promega) were used to investigate the inhibition of translation by DPR proteins. We independently monitored translation of two mRNAs encoding non-homologous proteins of different lengths: nanoluciferase[71] and firefly luciferase. To measure the IC50s of the translational inhibitors cycloheximide (Akros Organics), harringtonine (AbCam), GDPCP (Jena Biosciences), PR20 and GR20, we monitored the translation of nanoluciferase mRNA in nuclease-treated RRL (Promega). […] Next, 10 ng/μl (final concentration) 6xhis-Nanoluciferase mRNA flanked with the 5'- and 3'-UTR from rabbit beta-globin[48] was added and the luminescence reactions were continuously measured by an Infinite m1000 pro microplate reader (Tecan) for 15 min at 30 °C. The 1st derivative of the luminescence reactions was determined in Prism 8 (GraphPad Software, LLC) and the maximum was identified and the mean of three maximums from independent experiments for each inhibitor was taken as the rate. The rates were plotted versus inhibitors concentration, and the plots were fitted in Prism 8 (GraphPad Software, LLC) to a 3-parameter inhibition model (Y = baseline + (max-baseline)/(1 + X/IC50)) to obtain the IC50 values where the baseline was constrained to 0. This procedure was modified to separate translation initiation from translation elongation by changing the time of addition of the inhibitors to ~300 s after mRNA addition when RLUs had reached a value of ~50,000. Here, the maximum of the first derivative was taken in the 2nd or later measurement taken after inhibitor addition.
(§1) The following additional controls indicate that DPR-induced changes in fluorescence were caused by translation inhibition.

Another assay relates to nanoluciferase. Nature of the assay: Control: nanoluciferase enzyme activity after translation stopped by cycloheximide. The class given is biochemical. The following applies: 1 µM added after translation stopped by CHX; n=8. How it is done: as §1
Supplementary Fig. 1. […]
(e) Nanoluciferase mRNA was translated in
the absence of DPRs, translation was stopped by cycloheximide (CHX), then 1 µM PR20
or GR20 were added and luminescence was monitored. n=8 independent experiments;
mean of normalized RLU ± SD. […]

The subject of assay [2] is ribosomes on endogenous beta-globin mRNA in RRL. The assay can be described thus: Toeprinting of 80S and 4-5-mer polysome fractions on beta-globin mRNA. The class given is biochemical, rabbit. The following applies: for Ratio (START to CDS) / Normalized ratio START/ORF: 80S fraction, primer A, Fig. 2f independent repeat; for Normalized ratio START/ORF: no inhibitor = 1; for normalized ratio START to CDS, MEAN: 4-5-mer, primer B, mean of ten 20 bp windows. How it is done: Toeprinting analyses were carried out similarly to those in refs. [51],[74], using 80S and polysome (4–5-some) fractions collected from polysome profiles as described in “Polysome Profiles” except that reactions were doubled in size (200 μL), performed at 37 °C, and were stopped with ice-cold 1xAMV Buffer (50 mM Tris-HCl pH 8.3, 50 mM KCl, 5 mM MgCl2) with 200 μg/ml cycloheximide before being separated on at 10–35% sucrose gradient in 1xAMV buffer with 0.5 mM spermidine and 1 mM DTT. 600 μl of each fraction (80S or 4–5-mer) was supplemented with 10 mM DTT. Then 10 U of AMV reverse transcriptase (Promega), 120 nmol dNTPs, and 120 pmol of a 5'[6-carboxyfluorescein (FAM)]-labeled primer (IDT-DNA) were added. Two primers specific to the endogenous beta-globin mRNA in RRL were used in separate reactions: 5′-(FAM)-GGACTCGAAGAACCTCTG (as in ref. [74]) annealed 136 nucleotides downstream of the AUG or 5′-(FAM)-[…] annealed to the end of the 3'-UTR. Primers were extended at 37 °C for 30 min, and then the reaction were extracted in 1:1 phenol:chloroform, supplemented with 1/10 volume of 3 M sodium acetate pH 5.2, and precipitated with 2.5 volumes of 100% ethanol. Pellets were resuspended in 10 μl of deionized formamide (Applied Biosystems) with 1/20 volume of a 35-500 nucleotide orange-dye labeled DNA size standard (MCLab) and loaded onto a 96-well plate. The samples were sent for fragment analysis by capillary electrophoresis to the UMass Chan Medical School Molecular Biology Core Laboratory using an ABI3730XL DNA Fragment Analyzer with capillaries loaded with POP-7 polymer and with an injection voltage of 12.5 kV. Data collection was performed with GeneMapper software (ABI). Data were exported as.fsa files and were analyzed (aligning to ladder and background correction) in GeneMarker 3.0.1 software (SoftGenetics) running in demo mode. Screen captures of traces were taken and traces were integrated using the “Quantification” feature and manually adjusting sliders to include the desired nucleotide range.

Setting [3] is: 50% RRL, 5-min preincubation at 30 °C before nanoluciferase mRNA, maximal rate vs concentration, n = 3, mean ± SEM.

2 compounds from publication PMC9120013, “Ribosome inhibition by C9ORF72-ALS/FTD-associated poly-PR and poly-GR proteins revealed by cryo-EM” (Nature Communications, 2022) can be followed below.

pIC50: −log10 of the molar value. Read-outs that look alike come from different tables or passages of the source. Ends that are not written are not given here.

`N=C(N)NCCC[C@H](NC(=O)CNC(=O)[C@H](CCCNC(=N)N)NC(=O)CNC(=O)[C@H](CCCNC(=N)N)NC(=O)CNC(=O)[C@H](CCCNC(=N)N)NC(=O)CNC(=O)[C@H](CCCNC(=N)N)NC(=O)CNC(=O)[C@H](CCCNC(=N)N)NC(=O)CNC(=O)[C@H](CCCNC(=N)N)NC(=O)CNC(=O)[C@H](CCCNC(=N)N)NC(=O)CNC(=O)[C@H](CCCNC(=N)N)NC(=O)CNC(=O)[C@H](CCCNC(=N)N)NC(=O)CNC(=O)[C@H](CCCNC(=N)N)NC(=O)CNC(=O)[C@H](CCCNC(=N)N)NC(=O)CNC(=O)[C@H](CCCNC(=N)N)NC(=O)CNC(=O)[C@H](CCCNC(=N)N)NC(=O)CNC(=O)[C@H](CCCNC(=N)N)NC(=O)CNC(=O)[C@H](CCCNC(=N)N)NC(=O)CNC(=O)[C@H](CCCNC(=N)N)NC(=O)CNC(=O)[C@H](CCCNC(=N)N)NC(=O)CNC(=O)[C@H](CCCNC(=N)N)NC(=O)CNC(=O)[C@H](CCCNC(=N)N)NC(=O)CN)C(=O)O` [GR20]: the results for the pIC50 in assay [1] (33% RRL) and in assay [1] (setting [3]) were 6.37 and 6.19, respectively. In addition, the “effect on nanoluciferase enzyme activity” value with nanoluciferase is given as “do not affect enzyme activity”. Moreover, in assay [2], the “site of ribosome accumulation, toe-printing of polysome fractions” value is “accumulate within the open reading frame”. Also, the “Ratio (START to CDS)” value in assay [2] turned out to be 1.504. In assay [2], the “Normalized ratio START/ORF” value was 0.5576. Besides, the “normalized ratio START to CDS, MEAN” value in assay [2] (Fig. 2g) is listed as 0.4196; in assay [2] (Fig. 2h independent repeat), 0.5964.
“PRPRPRPRPRPRPRPRPRPRPRPRPRPRPRPRPRPRPRPR [PR20]”: the negative-log IC50 (pIC50) in assay [1] (33% RRL) is 6.49. The pIC50 in assay [1] (setting [3]) is 6.08. Also, in the assay with nanoluciferase, the “effect on nanoluciferase enzyme activity” value is reported as “do not affect enzyme activity”. For the same compound, in assay [2], the “site of ribosome accumulation, toe-printing of polysome fractions” value is recorded as “accumulate at the start codon”; the “Ratio (START to CDS)” value is reported as 5.983; the “Normalized ratio START/ORF” value turned out to be 2.218. Besides, the “normalized ratio START to CDS, MEAN” value in assay [2] (Fig. 2g) is listed as 2.067. The “normalized ratio START to CDS, MEAN” value in assay [2] (Fig. 2h independent repeat) was determined as 3.436.
